The values below come from patent publication US4008274A, “Certain salicylanilides” (Yoshitomi Pharmaceutical Industries, Ltd., priority 1973, dated 1977).

Values after ≈ are worked out from the molar mass of the structure shown. Some results are limits rather than exact numbers.

The subject of series [1] is Spirogyra. In words: Algicidal Activity. It counts as in vivo. Details: key: 0: Brown algae on the bottom of the vessel. Destroyed and brown spiral chloroplasts (under a microscope).; 10: Vigorous algae growth. Vivid green spiral chloroplasts (under a microscope). The conditions noted are these: 48 hours, 20°±2° C. How it is done:
Tap water (4 liters) was poured into a glass vessel (15 × 20 × 21 cm). The vessel was kept in a greenhouse maintained at 20°±2° C. Then 1 ml (or 5 ml) of a solution prepared by dissolving 0.400 g of the test compound in 100 ml of 4:1 ethanol-acetone mixture was dropped into the vessel to attain the concentration of 1 ppm (or 5 ppm). As the control run, 1 ml (or 5 ml) of the solvent was dropped into the vessel. About 5 g of wet Spirogyra was put in the vessel. Clean air was introduced at a rate of 150 ml/min for 48 hours.
The algicidal acticity was evaluated by the following criteria:
0: Brown algae on the bottom of the vessel. Destroyed and brown spiral chloroplasts (under a microscope).
10: Vigorous algae growth. Vivid green spiral chloroplasts (under a microscope).

For series [2], the system named is barnacles. In words: Barnacle Killing Activity. Type of series: in vivo. The conditions noted are these: after 48 hours, out of 30 living barnacles, 20°±2° C. As for the experimental part: Seawater (4 liters) was poured into a glass vessel (15 × 20 × 21 cm). The water temperature was maintained at 20°±2° C. Clean air was introduced at a rate of 150 ml/min throughout the experiment. Then 1 ml (or 5 ml) of a solution prepared by dissolving 0.400 g of the test compound in 100 ml of 4:1 ethanol-acetone mixture was dropped into the vessel to attain the concentration of 1 ppm (or 5 ppm). As the control run, 1 ml (or 5 ml) of the solvent was dropped into the vessel. Of scores of barnacles sticking to a stone obtained from the sea-shore 30 living barnacles were selected at randum, the rest of the barnacles on the stone being neglected for the experiment. Such stone was put in the vessel. After 48 hours, the number of dead barnacles was counted.

For series [3], the system named is Staphylococcus aureus FDA 2099. The series can be described thus: Antibacterial Activity (agar dilution method), Staphylococcus aureus FDA 2099. It counts as cell-based. The conditions noted are these: FDA2099, 48 h; Staphylococcus aureus FDA 2099, nutrient agar, 37° C, 2 days; read-out: minimal inhibitory concentration (MIC). How it is done: (§1) The minimal inhibitory concentration (MIC; mcg/ml) of the test compounds determined by the agar dilution method on the nutrient agar medium is shown in TABLE III. The procedure is as follows: The test compound was mixed with the nutrient agar medium and the medium was allowed to coagulate. A solution containing Staphylococcus aureus FDA 2099 or Bacillus subtilis PCI 219 was inoculated into the medium and cultivated at 37° C for 2 days.
On the technique in general: In agar dilution, organisms are placed on agar that contains the substance at set levels.

The subject of series [4] is Bacillus subtilis PCI 219. The series can be described thus: Antibacterial Activity (agar dilution method), Bacillus subtilis PCI 219. It counts as cell-based. The conditions noted are these: PCI219, 48 h; Bacillus subtilis PCI 219, nutrient agar, 37° C, 2 days; read-out: minimal inhibitory concentration (MIC). How it is done: as §1
Series [5] is described as follows: Oral toxicity (Litchfield-Wilcoxon method). Particulars: mouse, in vivo, dd-strain female mice, 25% suspension in water containing 0.5% carboxymethylcellulose. How it is done: Oral LD50 values were determined in dd-strain female mice according to the conventional Litchfield-Wilcoxon method. The test compound was administered as a 25% suspension in water containing 0.5% carboxymethylcellulose.

A short description of series [6]: Percutaneous toxicity. Particulars: mouse, in vivo, topical or ocular; dd-strain female mice, 10% solution in acetone on shaved backs. As for the experimental part:
Percutaneous LD50 values were determined in dd-strain female mice by applying a 10% solution of the test compound in acetone on the shaved backs.

`Cc1ccc(O)c(C(=O)Nc2ccc([N+](=O)[O-])cc2C)c1` [Test Compound 1, 2',5-dimethyl-4'-nitrosalicylanilide]: the algicidal activity score in series [1] (1 ppm) and in series [1] (5 ppm) was 0 throughout. The “number of dead barnacles” value in series [2] (1 ppm) was determined as 10; in series [2] (5 ppm), 30. Moreover, the MIC came out at 5 µg/mL (≈ 17.5 µM) in series [3] and 2 µg/mL (≈ 6.99 µM) in series [4].

Regarding `Cc1ccc(O)c(C(=O)Nc2ccc([N+](=O)[O-])c(C)c2)c1` [Test Compound 2, 3',5-Dimethyl-4'-nitrosalicylanilide], the algicidal activity score in series [1] (1 ppm) and in series [1] (5 ppm) was 0 in each case. The “number of dead barnacles” value in series [2] (1 ppm) came to 2; in series [2] (5 ppm) it was 30.

By LD50 is commonly meant the dose expected to kill half of the subjects tested. With `Cc1cc([N+](=O)[O-])ccc1NC(=O)c1cc(C(C)(C)C)ccc1O` [Test Compound 10, 5-Tert-butyl-2'-methyl-4'-nitrosalicylanilide], the values for the LD50 in series [5] and in series [6] were over 10000 mg/kg and over 5000 mg/kg, respectively.

With `Cc1cccc(NC(=O)c2cc(C(C)(C)C)ccc2O)c1C` [Test Compound 16, 5-Tert-butyl-2',3'-dimethylsalicylanilide], the LD50 in series [5] was over 10000 mg/kg; in series [6] it was over 5000 mg/kg.

On to `O=C(Nc1ccc(Br)cc1)c1cc(Br)cc(Br)c1O` [Tribromsalan, 3,4',5-Tribromosalicylanilide, reference compound], for which the median lethal dose (LD50) was 124 mg/kg in series [5] and over 2000 mg/kg in series [6].

For the compound `Cc1ccc(O)c(C(=O)Nc2cc([N+](=O)[O-])ccc2C)c1` [compound 3], the “number of dead barnacles” value came to 3 in series [2] (1 ppm) and 30 in series [2] (5 ppm). For the same compound, the MIC in series [3] and in series [4] was 10 µg/mL (≈ 34.9 µM) in each case.

With `Cc1ccc(O)c(C(=O)Nc2ccc([N+](=O)[O-])cc2)c1` [compound 4], the algicidal activity score in series [1] (1 ppm) was found to be 10; in series [1] (5 ppm), 0.

With `CSc1cccc(NC(=O)c2cc(C)ccc2O)c1` [compound 5], the “number of dead barnacles” value in series [2] (1 ppm) is recorded as 2; in series [2] (5 ppm), 18.

For the compound `COc1cc([N+](=O)[O-])ccc1NC(=O)c1cc(C)ccc1O` [compound 6], the figures for the “number of dead barnacles” value in series [2] (1 ppm) and in series [2] (5 ppm) were 2 and 20, respectively.

With `Cc1cc([N+](=O)[O-])ccc1NC(=O)c1cc(C(C)C)ccc1O` [compound 7], the algicidal activity score in series [1] (1 ppm) and in series [1] (5 ppm) was 0 each time. In addition, the figures for the “number of dead barnacles” value in series [2] (1 ppm) and in series [2] (5 ppm) were 14 and 30, respectively. Moreover, the MIC in series [3] and in series [4] was 5 µg/mL (≈ 15.9 µM) each time.

With `Cc1ccc([N+](=O)[O-])cc1NC(=O)c1cc(C(C)C)ccc1O` [compound 8], the algicidal activity score in series [1] (1 ppm) is 10; in series [1] (5 ppm) it was 0. Further, the “number of dead barnacles” value in series [2] (1 ppm) worked out at 16; in series [2] (5 ppm), 30. Besides, the MIC in series [3] and in series [4] was 5 µg/mL (≈ 15.9 µM) throughout.

As to `CC(C)c1ccc(O)c(C(=O)Nc2ccc([N+](=O)[O-])cc2)c1` [compound 9], the algicidal activity score in series [1] (1 ppm) and in series [1] (5 ppm) was 0 in each case. Further, the results for the “number of dead barnacles” value in series [2] (1 ppm) and in series [2] (5 ppm) were 20 and 30, respectively. In addition, the MIC in series [3] and in series [4] was 5 µg/mL (≈ 16.6 µM) in each case.

With `Cc1cc([N+](=O)[O-])ccc1NC(=O)c1cc(C(C)(C)C)ccc1O` [compound 10], the algicidal activity score in series [1] (1 ppm) and in series [1] (5 ppm) was 0 in each case. In addition, the “number of dead barnacles” value in series [2] (1 ppm) and in series [2] (5 ppm) was 30 throughout. Further, the MIC in series [3] is 1 µg/mL (≈ 3.05 µM); in series [4] it was 0.5 µg/mL (≈ 1.52 µM).

As to `Cc1cc(NC(=O)c2cc(C(C)(C)C)ccc2O)ccc1[N+](=O)[O-]` [compound 11], the algicidal activity score in series [1] (1 ppm) is on record as 10; in series [1] (5 ppm), 0. In addition, the “number of dead barnacles” value in series [2] (1 ppm) and in series [2] (5 ppm) was 30 throughout. For the same compound, the MIC in series [3] and in series [4] was 1 µg/mL (≈ 3.05 µM) each time.

Consider `Cc1ccc([N+](=O)[O-])cc1NC(=O)c1cc(C(C)(C)C)ccc1O` [compound 12], for which the figures for the algicidal activity score in series [1] (1 ppm) and in series [1] (5 ppm) were 10 and 0, respectively. The “number of dead barnacles” value in series [2] (1 ppm) and in series [2] (5 ppm) was 30 in each case. The MIC in series [3] and in series [4] was 2 µg/mL (≈ 6.09 µM) in each case.

In the case of `CC(C)(C)c1ccc(O)c(C(=O)Nc2ccc([N+](=O)[O-])cc2)c1` [compound 13], the “number of dead barnacles” value came to 22 in series [2] (1 ppm) and 30 in series [2] (5 ppm). Besides, the MIC in series [3] amounted to 2 µg/mL (≈ 6.36 µM); in series [4], 1 µg/mL (≈ 3.18 µM).

Regarding `CSc1cccc(NC(=O)c2cc(C(C)(C)C)ccc2O)c1` [compound 14], the algicidal activity score in series [1] (1 ppm) worked out at 10; in series [1] (5 ppm), 0. Moreover, the “number of dead barnacles” value was 3 in series [2] (1 ppm) and 30 in series [2] (5 ppm). The MIC in series [3] and in series [4] was 5 µg/mL (≈ 15.9 µM) in each case.

As for `COc1cc([N+](=O)[O-])ccc1NC(=O)c1cc(C(C)(C)C)ccc1O` [compound 15], the “number of dead barnacles” value in series [2] (1 ppm) came out at 9; in series [2] (5 ppm) it was 30.

`Cc1cccc(NC(=O)c2cc(C(C)(C)C)ccc2O)c1C` [compound 16]: the results for the algicidal activity score in series [1] (1 ppm) and in series [1] (5 ppm) were 10 and 0, respectively. The “number of dead barnacles” value worked out at 4 in series [2] (1 ppm) and 30 in series [2] (5 ppm).

For `COc1ccc(NC(=O)c2cc(C(C)(C)C)ccc2O)cc1` [compound 17], the values for the algicidal activity score in series [1] (1 ppm) and in series [1] (5 ppm) were 10 and 0, respectively.

Regarding `CCC(C)(C)c1ccc(O)c(C(=O)Nc2ccc([N+](=O)[O-])cc2C)c1` [compound 18], the algicidal activity score in series [1] (1 ppm) and in series [1] (5 ppm) was 0 throughout. The “number of dead barnacles” value in series [2] (1 ppm) and in series [2] (5 ppm) was 30 in each case. The MIC in series [3] and in series [4] was 0.5 µg/mL (≈ 1.46 µM) throughout.

On to `CCC(C)(C)c1ccc(O)c(C(=O)Nc2ccc([N+](=O)[O-])c(C)c2)c1` [compound 19], for which the algicidal activity score in series [1] (1 ppm) and in series [1] (5 ppm) was 0 in each case. Also, the “number of dead barnacles” value in series [2] (1 ppm) turned out to be 2; in series [2] (5 ppm), 30. The MIC in series [3] and in series [4] was 0.5 µg/mL (≈ 1.46 µM) each time.

Take `CCC(C)(C)c1ccc(O)c(C(=O)Nc2cc([N+](=O)[O-])ccc2C)c1` [compound 20]: the algicidal activity score in series [1] (1 ppm) and in series [1] (5 ppm) was 0 throughout. For the same compound, the “number of dead barnacles” value in series [2] (1 ppm) and in series [2] (5 ppm) was 30 throughout. Also, the MIC in series [3] and in series [4] was 1 µg/mL (≈ 2.92 µM) each time.

In the case of `CCC(C)(C)c1ccc(O)c(C(=O)Nc2ccc([N+](=O)[O-])cc2)c1` [compound 21], the algicidal activity score in series [1] (1 ppm) and in series [1] (5 ppm) was 0 throughout. The entries for the “number of dead barnacles” value in series [2] (1 ppm) and in series [2] (5 ppm) were 25 and 30, respectively. In addition, the MIC in series [3] and in series [4] was 1 µg/mL (≈ 3.05 µM) throughout.

`CCC(C)(C)c1ccc(O)c(C(=O)Nc2cccc(SC)c2)c1` [compound 22]: the figures for the algicidal activity score in series [1] (1 ppm) and in series [1] (5 ppm) were 10 and 0, respectively.

As for `CCC(C)(C)c1ccc(O)c(C(=O)Nc2ccc([N+](=O)[O-])cc2OC)c1` [compound 23], the algicidal activity score in series [1] (1 ppm) and in series [1] (5 ppm) was 0 throughout. Moreover, the “number of dead barnacles” value in series [2] (1 ppm) worked out at 6; in series [2] (5 ppm), 30. Further, the MIC in series [3] and in series [4] was 5 µg/mL (≈ 14 µM) each time.

`Cc1cc([N+](=O)[O-])ccc1NC(=O)c1cc(C(C)(C)CC(C)(C)C)ccc1O` [compound 24]: the MIC in series [3] and in series [4] was 1 µg/mL (≈ 2.6 µM) each time.
